From US6083929A, “Extended type 1 chain glycosphingolipids as tumor-associated antigens” (The Biomembrane Institute, priority 1992, dated 2000)
Entries after “also recorded” stand apart in the source; their conditions may differ. Where two headings read alike, the source gives them in different places.

Tests used:
MAb IMH2 = assay: TLC immunostaining / solid-phase ELISA reactivity of MAb IMH2 with GSL antigens; design: species or system mouse; conditions: TLC immunostaining / antibody binding on solid-phase antigen, IMH2 5 μg/ml
Method: FIG. 8 graphically illustrates the reactivity of MAb IMH2 with various glycosphingolipids (GSLs). Serial double dilutions of various GSL antigens were added to 96-well flat-bottom assay plates (Probind plate, Falcon) in ethanol and dried. Initial concentration of GSL added to the first well was 100 ng/well. MAb binding assay was performed by ELISA as described below. Abscissa, reciprocal of antigen dilution. Ordinate, optical density reading at 490 nm. Paragloboside is abbreviated as "PG". Panel A: reactivity of type 1 chain GSLS. .circle-solid., Le^b /Le^a. .smallcircle., Le^b hexasaccharide (IV^2 FucIII^4 FucLc4). Δ, Le^a /Le^a. .quadrature. […] Panel B: reactivity of type 2 chain GSLs. .circle-solid., Le^y /Le^x (VI^2 FucV^3 FucIII^3 FucnLc6). .smallcircle., Le^y hexasaccharide ceramide (IV^2 FucIII^3 FucnLc4). Δ, Le^x /Le^x (V^3 FucIII^3 FucnLc6). .quadrature. (all of the following had similar reactivity), H1 type 2 chain (IV^2 nLc4); H2 type 2 chain (IV^2 FucnLc6); PG (nLc4); Le^x (III^3 FucnLc4). When GSL antigens were mixed with cholesterol and phosphatidylcholine in a molar ratio of 1:5:3 in ethanol and analyzed as above, the relative degrees of reactivity were essentially the same as shown in the figure.
The binding specificity of MAb IMH2 was tested by thin-layer chromatography immunostaining of various GSL antigens by the method previously described by Magnani et al. (Anal. Biochem. 109:399-402, 1980), and modified by Kannagi et al. (Cancer Res. 43:4997-5005, 1983). IMH2 reactivity was also determined by antibody binding on solid-phase antigen as follows. Each GSL antigen, dissolved in ethanol (100 ng/50 μl), was placed in a well, serially diluted with ethanol to 0.1 ng/50 μl per well in a flat-bottom 48-well plate (Falcon, Becton-Dickinson, Lincoln Park, N.J.), and dried. The dried antigen in each well was then incubated with 1% bovine serum albumin in PBS for 1 hr at room temperature, followed by reaction with IMH2 (5 μg/ml) for 18 hr at 4° C. Each well was washed with PBS, followed by incubation with biotinylated second antibody and avidin-peroxidase conjugate as prepared in the ELISA assay kit. The orange color developed in each well was read by automated "ELISA reader" (EL312 Biokinetics Reader, Biotek Instruments, Winooski, Vt.), and optical density at […] for each well was recorded.

MAb MNH-1 = assay: TLC immunostaining with MAb MNH-1; format: binding; conditions: TLC immunostaining after enzymatic degradation of dimeric Le^a
Method: (§1) MAb ST-421 was established as previously described (Watanabe et al., Jpn. J. Cancer Res. (Gann) 76:43-52, 1985). MAb MNH-1, which defines type 1 chain N-acetyllactosamine (Galβ1→3GlcNAcβ1→R), was prepared in laboratory of the inventors; MAb 1B2, which defines type 2 chain N-acetyllactosamine (Galβ1→4GlcNAcβ1→R), was established as previously described (Young et al., J. Biol. Chem. 256:10967-10972, 1981). Anti-Le^a MAb was obtained from Chembiomed Ltd. (Edmonton, Alberta, Canada). […] HPTLC immunostaining was performed using Whatman HPTLC plates (HP-KF) by a modified version (Kannagi et al., J. Biol. Chem. 257:4438-4442, 1982; Kannagi et al., J. Biol. Chem. 257:14865-14874, 1982) of the method originally described by Magnani et al. (Magnani et al., Anal. Biochem. 109:399-402, 1980).
(§2) Enzymatic degradation of 1 mg dimeric Le^a was performed by sequential hydrolysis with 0.5 units of α-fucosidase (bovine kidney), 0.5 units of β-galactosidase (Cackbean), and 0.5 units of β-N-acetylglucosaminidase (bovine epididymis) (Sigma Chemical Co., St. Louis, Mo.). All reactions were carried out in 0.2 M sodium citrate (pH 4.5) for 4 hr at 37° C. in a water bath with shaking. Purification of each degradative product was performed by preparative HPTLC.
(§3) TLC immunostaining of the purified antigen component with various MAbs was performed before and after successive enzymatic degradation. […] Bands a and b are therefore assumed to be Lc6 (Table III, structure 6) and III^4 FucLc6 (structure 13), respectively, based on their reactivity with MAbs and on further enzymatic degradation patterns.

MAb 1B2 = assay: TLC immunostaining with MAb 1B2; format: binding; conditions: TLC immunostaining after enzymatic degradation of dimeric Le^a
Method: as §1, §2, §3

MAb ST-421 [1] = assay: TLC immunostaining of GSL with MAb ST-421; format: binding
Method: as §1
Extended sialyl-Le^a on the SLe^a -Le^a structure was verified by enzymatic degradation with sialidase to yield the same compournd as Le^a -Le^a as verified by thin layer chromatography as well as immunostaining with monoclonal antibody ST-421.

MAb ST-421 [2] = assay: Solid-phase radioimmunoassay of glycolipids with MAb NCC-ST-421; format: binding; conditions: ST421 10 μg/ml, initial glycolipid 100 ng
Method: FIG. 7 graphically illustrates the reactivity of dimeric Le^a, Le^a -Le^x and related glycolipids with MAb NCC-ST-421. Solid-phase radioimmunoassay with MAb ST-421 using serially-diluted dimeric Le^a, Le^a /Le^x, and various structurally-related glycoilpid antigens. Initial concentration of glycolipids was 100 ng. ST421 was used at a concentration of 10 μg/ml. A, IV^3 Galβ1→3[Fuc1→4]GlcNAcIII^3 FucnLc4 (Le^a /Le^x; structure 10 in Table III); B, V^4 III^4 Fuc2 Lc6 (dimeric Le^a; structure 11); C, IV^3 Galβ1→3[Fucα1→4]GlcNAcnLc4 (structure 8); D, III^4 FucLc4 (structure 1); E, IV^3 (Galβ1→3GlcNAcIII^3 FucnLc4 (structure 9); F, V^3 III^3 Fuc2 nLc6 (structure 7); G, IV^2 FucLc4 (structure 2); H, IV^3 Galβ1→3GlcNAcnLc4 (structure 4); I, IV^2 III^4 Fuc2 Lc4 (structure 3); J, nLc6 (structure 5); K, VI^2 FucnLc6 (type 2 H with nLc6 core; not shown in Table III); L, VI^2 V^3 Fuc2 nLc6 (Le^y with nLc6 core; not shown in Table III).
The solid-phase radioimmunoassay as described by Kannagi et al. (Cancer Res. 43:4997-5005, 1983) was used. […] Dimeric Le^x and various other structurally related GSLs were not reactive with ST421 (FIG. 7).

anti-Le^a MAb = assay: Reactivity of GSL with anti-Le^a MAb; format: binding
Method: as §1, §3

anti-Le^b MAbs = assay: Reactivity of GSL with anti-Le^b MAbs; format: binding
Method: as §1

anti-Le^y MAb AH6 = assay: Reactivity of GSL with anti-Le^y MAb AH6; format: binding
Method: as §1

III^3 V^3 Fuc2 nLc6 [Dimeric Le^x]
reactivity of MAb IMH2 with GSL (in words) (MAb IMH2): reacted weakly

III^4 FucLc6
reactivity with MAb MNH-1 (MAb MNH-1): reacted with MAb MNH-1 | reactivity with MAb 1B2 (MAb 1B2): not with anti-Le^a or 1B2

III^4 V^4 Fuc2 Lc6 [dimeric Le^a]
reactivity with MAb ST-421 (MAb ST-421 [1]): stained strongly

IV^2 FucLc4 [H type 1 chain]
reactivity of MAb IMH2 with GSL (in words) (MAb IMH2): did not react

IV^2 FucnLc4 [H1]
reactivity of MAb IMH2 with GSL (in words) (MAb IMH2): did not react

IV^3 Galβ1→3[Fuc1→4]GlcNAcIII^3 FucnLc4 [Le^a /Le^x]
reactivity with ST-421 (MAb ST-421 [2]): strongest reactivity; also recorded: clear preference for them compared to extended Le^a or simple Le^a | reactivity with anti-Le^a MAb (anti-Le^a MAb): reacted with anti-Le^a MAb | reactivity of MAb IMH2 with GSL (in words) (MAb IMH2): did not react | reactivity of MAb IMH2 with GSL (in words) (MAb IMH2; listed as Le^a /Le^a): reacted weakly | reactivity with MAb ST-421 (MAb ST-421 [1]): reacted with anti-Le^a MAb as well as with MAb ST-421 | reactivity with MAb ST-421 (MAb ST-421 [1]; listed as Le^a /Le^a): react strongly; also recorded: reacted with anti-Le^a MAb as well as with MAb ST-421

Lc4
reactivity with MAb MNH-1 (MAb MNH-1): reacted strongly | reactivity with MAb 1B2 (MAb 1B2): did not react | reactivity of MAb IMH2 with GSL (in words) (MAb IMH2): did not react

Lc6
reactivity with MAb MNH-1 (MAb MNH-1): reacted with MAb MNH-1 | reactivity with MAb 1B2 (MAb 1B2): not with anti-Le^a or 1B2

VI^2 FucV^3 FucIII^3 FucnLc6 [Le^y /Le^x]
reactivity with anti-Le^b MAbs (anti-Le^b MAbs): not with anti-Le^b | reactivity of MAb IMH2 with GSL (in words) (MAb IMH2): reacts strongly; also recorded: reacted equally well; also recorded: reacts | reactivity with anti-Le^y MAb AH6 (anti-Le^y MAb AH6): reacted with AH6

VI^2 FucnLc6 [H2]
reactivity of MAb IMH2 with GSL (in words) (MAb IMH2): did not react

nLc4
reactivity of MAb IMH2 with GSL (in words) (MAb IMH2): did not react
